Values after ≈ are worked out from the molar mass of the structure shown. Read-outs that look alike come from different tables or passages of the source.
Tests used:
[1] = equilibrium, 1.5 ml pH 7.3 artificial saliva, 16 hours
[2] = equivalent to 100 mg free form in 250 ml pH 7.3 artificial saliva, 37° C., 50 RPM
Method: Dissolution experiments using the salt forms of gemfibrozil were performed using a VanKel VK7010 dissolution apparatus equipped with a VK750D heater/circulator. The 2 paddle method was used. Dissolution medium was 250 mL of artificial saliva, pH 7.30. The temperature was maintained at 37° C. The paddles were rotated at 50 RPM. […] Samples aliquots of 2 mL were taken at 5, 10, and 15 minutes and filtered immediately using a […] Nylon membrane syringe filter. Samples were analyzed by HPLC.

[3] = Dynamic vapor sorption (DVS); type: physicochemical; set-up: key to Hysteresis: % change in weight (DVS sorption/desorption); details: for Hysteresis: in % (unit assumed); for state of post-DVS sample: after sorption/desorption cycle 5%-95%-5% relative humidity; for Desorp Mass Change: desorption; for gained moisture retained: following desorption from 95% to 5% relative humidity; for percent change in mass: sorption from 85% to 95% relative humidity; for Sorp Mass Change: sorption
Text: In an embodiment, ethanolamine gemfibrozil salt Form A has a low hygroscopicity below approximately 55% relative humidity, meaning less than 0.5% increases in weight below approximately 55% relative humidity, which may be determined using dynamic vapor sorption (DVS) to detect changes in weight of the salt in response to changes in relative humidity. […] Table 6 lists the percent change in weight of ethanolamine gemfibrozil salt Form A (Sorp Mass Change (%)) in 10% relative humidity increments from its initial weight at 5% relative humidity to its weight at 95% relative humidity.
Dynamic Vapor Sorption (DVS)—Moisture sorption/desorption data were collected on a SMS Intrinsic Dynamic Vapor Sorption Analyzer. Sodium chloride and PVP were used as calibration standard. Samples were not dried prior to analysis. Sorption and desorption data were collected over a range from 5% to 95% relative humidity at 10% relative humidity increments under a nitrogen purge. The equilibrium criterion used for analysis was less than 0.0100% weight change in 5 minutes with a maximum equilibration time of 3 hours. Data were not corrected for the initial moisture content of the samples.

[4] = XRPD form check after humidity stress; type: physicochemical
Text: In an example, an L-arginine gemfibrozil salt was stressed for one day at 75% relative humidity.
The observed peaks of the post-DVS salt were consistent with the pattern of peaks observed for an L-lysine gemfibrozil salt Material A prepared prior to exposure to increased relative humidities (FIG. 15).
X-Ray Powder Diffraction (XRPD)—XRPD patterns were collected with a PANalytical X'Pert PRO MPD or PANalytical Empyrean diffractometers using an incident beam of Cu radiation produced using an Optix long, fine-focus source. An elliptically graded multilayer mirror was used to focus Cu Kα X-rays through the specimen and onto the detector. Prior to analysis, a silicon specimen (NIST SRM 640e) was analyzed to verify the observed position of the Si 111 peak is consistent with the NIST-certified position. A specimen of the sample was sandwiched between 3 μm thick films and analyzed in transmission geometry. A beam-stop, short antiscatter extension, and antiscatter knife edge were used to minimize the background generated by air. Soller slits for the incident and diffracted beams were used to minimize broadening from axial divergence. Diffraction patterns were collected using a scanning position-sensitive detector (X'Celerator) located […] from the specimen and Data Collector software v. 5.5.

[5] = Thermogravimetric analysis (TGA); type: physicochemical
Method: Thermogravimetric Analysis (TGA)—TG analysis was performed using a Mettler-Toledo TGA/DSC3+ analyzer. Temperature and enthalpy adjustments were performed using indium, tin, and zinc, and then verified with indium. The balance was verified with calcium oxalate. The sample was placed in an open aluminum pan. The pan was hermetically sealed, the lid pierced, then inserted into the TG furnace. A weighed aluminum pan configured as the sample pan was placed on the reference platform. The furnace was heated under nitrogen. The data acquisition parameters for the thermogram are determined.

physchem = details: pH 7.3, fassgf or other biorelevant, thermodynamic from solid
Method: The solution was then mixed by vortexing or sonicating, until complete dissolution was observed.
Kinetic Solubilities/Visual Solubility Assessment—Weighed samples were treated with aliquots of solvent at ambient temperature unless otherwise indicated. Samples were typically sonicated between additions to facilitate dissolution. Complete dissolution was observed through visual inspection. Solubilities were calculated based on the total amount of solvent added to achieve complete dissolution and may be greater than the value reported due to incremental solvent addition and the inherent kinetics of dissolution. […] These values are approximate. These values may also over-represent the amount of solvent required given that solvent was added incrementally. Approximately 10 mg of gemfibrozil salt was weighed into a vial. Artificial saliva was added to the vial until complete dissolution was observed. Each volume addition was followed by vortex mixing or sonication and observation on the presence of solids was noted.
Solubility descriptors were used as follows—Practically insoluble refers to a compound that is soluble at less than 0.1 mg/ml in solution. […] Slightly soluble, refers to a compound that is soluble in an aqueous solution from 1 mg/ml to 10 mg/ml. Sparingly soluble, refers to a compound that is soluble in an aqueous solution from 10 mg/ml to 30 mg/ml. […]

[6] = cited from earlier work
[7] = Dissolution of free-form gemfibrozil in artificial saliva (USP <711> apparatus 2, HPLC); type: physicochemical; details: 4 hours; 600 mg in 900 mL pH 7.3 artificial saliva, 100 rpm, 37° C. (FIG. 1)
Method: USP <711> dissolution apparatus 2 (paddle method) was used. Dissolution medium was 900 mL of artificial saliva, pH 7.30. The temperature was maintained at 37° C. The paddles were rotated at 100 RPM. Six-hundred milligrams of gemfibrozil was added into each vessel at t=0. Samples aliquots of 2 mL were taken at 0.25, 0.5, 1, 2, 3, and 4 hours and filtered immediately using a 0.45 μm Nylon membrane syringe filter, whereby the filtrate was diluted at a 1:1 ratio with methanol and then vortexed. Samples were analyzed by HPLC.

[8] = sorption from 5% to 85% relative humidity

## Cc1ccc(C)c(OCCCC(C)(C)C(=O)O)c1.N=C(N)NCCCC(N)C(=O)O [Arginine Material A]
[1]
  Observations: No excess solids
[2]; 5 min
  Average % Gemfibrozil dissolved: 96.64%
[2]; 5 min, listed as L-arginine gemfibrozil salt Material A
  Average % Gemfibrozil dissolved: 96.6%
[2]; 10 min
  Average % Gemfibrozil dissolved: 94.40%
[2]; 15 min
  Average % Gemfibrozil dissolved: 94.27%
[3]; Target RH 15.0%
  Hysteresis: 6.09
  Desorp Mass Change: 6.12%
  Sorp Mass Change: 0.03%
[3]; Target RH 25.0%
  Hysteresis: 6.79
  Desorp Mass Change: 6.85%
  Sorp Mass Change: 0.06%
[3]; Target RH 35.0%
  Hysteresis: 7.73
  Desorp Mass Change: 7.89%
  Sorp Mass Change: 0.16%
[3]; Target RH 45.0%
  Hysteresis: 9.27
  Desorp Mass Change: 9.51%
  Sorp Mass Change: 0.25%
[3]; Target RH 55.0%
  Hysteresis: 11.46
  Desorp Mass Change: 11.75%
  Sorp Mass Change: 0.28%
[3]; Target RH 65.0%
  Hysteresis: 14.60
  Desorp Mass Change: 14.95%
  Sorp Mass Change: 0.35%
[3]; Target RH 75.0%
  Hysteresis: 18.97
  Desorp Mass Change: 19.47%
  Sorp Mass Change: 0.50%
[3]; Target RH 85.0%
  Hysteresis: 25.96
  Desorp Mass Change: 26.79%
  Sorp Mass Change: 0.83%
[3]
  state of post-DVS sample: deliquesced
  gained moisture retained: approximately 5.6%
  percent change in mass: 45.1%
[3]; Target RH 5.0%
  Desorp Mass Change: 5.55%
  Sorp Mass Change: 0.00%
[3]; Target RH 95.0%
  Desorp Mass Change: 45.96%
  Sorp Mass Change: 45.96%
[3]; [8]
  percent increase in mass: approximately 0.8%
[4]; stressed for one day at 75% relative humidity
  form change by XRPD: did not undergo a form change
[5]
  temperature until which weight does not decrease (may be the onset of decomposition): approximately 207 °C
[5]; between 44° C. and 125° C.
  weight loss: approximately 0.1%

## Cc1ccc(C)c(OCCCC(C)(C)C(=O)O)c1 [Free Form, 5-(2,5-dimethylphenoxy)-2,2-dimethyl-pentanoic acid]
physchem
  solubility: < 1100 µg/mL
[6]; in DMSO
  solubility: ~16 mg/mL (≈ 63.9 mM)
[6]; in a 1:1 solution of ethanol:PBS
  solubility: approximately 0.5 mg/mL
[6]; in ethanol
  solubility: approximately 30 mg/ml
[6]; in water
  solubility: approximately 0.03 mg/ml
[7]
  average % of free-form gemfibrozil dissolved: 78%

## Cc1ccc(C)c(OCCCC(C)(C)C(=O)O)c1.NCCCCC(N)C(=O)O [Lysine Material A]
[1]
  Observations: No excess solids
[2]; 5 min
  Average % Gemfibrozil dissolved: 96.29%
[2]; 5 min, listed as L-lysine gemfibrozil salt Material A
  Average % Gemfibrozil dissolved: 96.3%
[2]; 10 min
  Average % Gemfibrozil dissolved: 93.51%
[2]; 15 min
  Average % Gemfibrozil dissolved: 94.67%
[3]; Target RH 15.0%
  Hysteresis: 2.48
  Desorp Mass Change: 2.53%
  Sorp Mass Change: 0.04%
[3]; Target RH 25.0%
  Hysteresis: 3.61
  Desorp Mass Change: 2.81%
  Sorp Mass Change: 0.19%
[3]; Target RH 35.0%
  Hysteresis: 2.69
  Desorp Mass Change: 3.09%
  Sorp Mass Change: 0.40%
[3]; Target RH 45.0%
  Hysteresis: 2.54
  Desorp Mass Change: 3.45%
  Sorp Mass Change: 0.91%
[3]; Target RH 55.0%
  Hysteresis: 2.30
  Desorp Mass Change: 4.09%
  Sorp Mass Change: 1.79%
[3]; Target RH 65.0%
  Hysteresis: 2.09
  Desorp Mass Change: 5.25%
  Sorp Mass Change: 3.15%
[3]; Target RH 75.0%
  Hysteresis: 3.16
  Desorp Mass Change: 9.49%
  Sorp Mass Change: 6.32%
[3]; Target RH 85.0%
  Hysteresis: 13.47
  Desorp Mass Change: 27.95%
  Sorp Mass Change: 14.48%
[3]
  state of post-DVS sample: deliquesced
  gained moisture retained: approximately 2.1%
  percent change in mass: approximately 24.5%
[3]; Target RH 5.0%
  Desorp Mass Change: 2.09%
  Sorp Mass Change: 0.00%
[3]; Target RH 95.0%
  Desorp Mass Change: 38.97%
  Sorp Mass Change: 38.97%
[3]; sorption from 5% to 25% relative humidity
  percent increase in mass: approximately 0.2%
[3]; [8]
  percent increase in mass: approximately 14.5%
[4]; post-DVS sample, exposure to increased relative humidity
  form change by XRPD: did not undergo a form change
[5]
  temperature until which weight does not decrease (may be the onset of decomposition): approximately 165 °C
